Experimental findings from paper PMC10049354, “Anti-Inflammatory Effects and Photo- and Neuro-Protective Properties of BIO203, a New Amide Conjugate of Norbixin, in Development for the Treatment of Age-Related Macular Degeneration (AMD)” (International Journal of Molecular Sciences, 2023) are described below.

In series [1] the test system is primary porcine RPE cells. The series can be described thus: RPE phototoxicity: photoprotection of RPE cells exposed to A2E and blue light. In kind it is cell-based, pig. Particulars: all concentrations from 10 to 20 μM; A2E 30 μM + blue light. As for the experimental part: RPE cells were obtained from pig eyes, as previously described. RPE cells were seeded on a 96-well plate at a density of 1.5 × 10^5 cells/cm^2 in DMEM 2% FCS. BIO201, BIO203, or its pure enantiomers were added in increasing concentrations to the culture medium 48 h before illumination. A2E was added to the medium at a final concentration of 30 μM, and 19 h later, blue-light illumination was performed for 50 min using a 96 blue-led device (Durand, St Clair de la Tour, France) emitting at 470 nm (1440 mcd, 8.6 mA). Just before illumination, the culture medium was replaced by a modified DMEM without any photosensitizer and with 2% FCS. Twenty-four hours after blue-light irradiation, all cell nuclei were stained with Hoechst 33342, and nuclei of dead cells with ethidium homodimer 2, fixed with paraformaldehyde (4% in PBS, 10 min) and 9 pictures per well were captured using a fluorescence microscope (Nikon TiE) equipped with a CoolSNAP HQ2 camera and driven by Metamorph Premier On-Line program. Quantification of live cells was performed using Metamorph Premier Off-Line and a homemade program by subtraction of dead cells from all cells. For cytokines mRNA analysis, RPE cells were seeded in 24-well plates and left untreated or treated with A2E or BIO203 alone or A2E plus BIO203. After 48 h, cells were lysed using the lysis buffer from the NucleoSpin® RNA kit, and the samples were stored at −80 °C.

Series [2] deals with albino rats exposed to blue-light-induced photoreceptor degeneration. The series can be described thus: Blue-light damage (BLD) study in albino rats: ERG. To be noted: 50 mg/kg, four IP administrations; positive controls. In kind it is in vivo, rat. As for the experimental part:
The ERG in rats was performed using the electrophysiological system RETI-animal® from Roland Consult. ERG was recorded on both eyes from overnight dark-adapted animals. Rats were anesthetized by an intramuscular injection of a mix of Rompun® (xylazine)/Imalgene® (ketamine) before ERG measurement. Ten to fifteen minutes before measurement, one drop of Mydriaticum® (0.5% tropicamide) was instilled for pupillary dilatation. The A-wave and B-wave implicit times (ms) and amplitudes (µV) were measured for each ERG. The B-wave amplitude (value and %) was given as informative data. ERG parameters: Ganzfeld Q450C, Color: white maximum, Maximum intensity: 3 cd/m^2 (0 dB); Duration 0.24 ms; number of flashes: 1, Filter: 50 Hz, Impedance threshold: 50 kΩ. For scotopic ERGs, the A-wave amplitudes were measured from the baseline to the peak of the negative potential, whereas B-wave amplitudes were measured from the trough of the A-wave to the peak of the positive potential. The recordings obtained from these analyses were tabulated and normalized (%) for each eye. Group means, standard deviation, and median values were calculated, considering each eye from one animal as a separate value. ERG recordings in mice were performed as previously described.
(§1) Sixty-four animals were selected based on good health and on scotopic electroretinogram performed before induction when the A-wave amplitude of both eyes was in the range of the global mean (all animals) of A-wave amplitude ± 1.96 SD. Animals were then randomized into the study groups using a macro function in Excel® software based on the A-wave amplitude of both eyes (mean value). On Day 0, BIO203, negative controls, and comparator (N-tert-Butyl-a-phenylnitrone (PBN)) were intraperitoneally injected using a 25 G needle in rats that have been dark-adapted for 36 h. Individually housed rats were then exposed for 6 h (±5 min) to a continuous blue, fluorescent light (400–540 nm) in clear plastic cages. After exposure and administration, the rats were placed in a dark room for 24 h (±1 h) and then were returned to rearing cyclic light conditions.

Series [3] has the same test system. In words: Blue-light damage (BLD) study in albino rats: retinal histology (photoreceptor layers). The format is in vivo, rat. Particulars: 50 mg/kg, four IP administrations; 6 h blue-light exposure; p < 0.0001. The protocol: At the end of the measurement period on Day 7, rats were euthanized by an intraperitoneal injection of pentobarbital. Immediately after euthanasia, both eyeballs were sampled, fixed in Davidson’s solution, and processed for histology. Sections (5 to 7 µm thick) were performed along the vertical meridian and stained with Haematoxylin/Eosin stain. The vertical meridian included the optic nerve. […] The thickness of the outer nuclear layer was measured on each point. […] Histology and photoreceptor counting in mice were performed as previously described.
as §1

For the compound `CO[C@@H]1CCCN(C(=O)/C=C/C(C)=C/C=C/C(C)=C/C=C/C=C(C)/C=C/C=C(C)\C=C\C(=O)O)C1` [BIO203-R], in series [1], the “protective activity compared with BIO203 (racemate)” value was “same protective activity as BIO203”. Take `CO[C@H]1CCCN(C(=O)/C=C/C(C)=C/C=C/C(C)=C/C=C/C=C(C)/C=C/C=C(C)\C=C\C(=O)O)C1` [BIO203-S]: the “protective activity compared with BIO203 (racemate)” value in series [1] is recorded as “same protective activity as BIO203”.

On to `CC(C)(C)[N+]([O-])=Cc1ccccc1` [PBN, N-tert-Butyl-a-phenylnitrone, reference compound], for which, in series [2], the “effect on visual function (ERG A-wave and B-wave)” value was “protected the visual functions”. For the same compound, the “preservation of retinal structure (photoreceptor layers)” value in series [3] is on record as “partially preserved the retinal structure”.
